The structures appear in SMILES notation.

The nature of experiment [1]: Antimicrobial property of PVC surface with embedded agent. The conditions noted are these: agent added to PVC heated to 350° F., 10 g/square meter of finished surface; after pressing and cooling. As for the experimental part:
To a preparation of PVC prepared for finishing and heated to 350° F. is added the agent bis-1′,3′-(1-hexadecyl)-1,4-diazoniabicyclo[2.2.2]octane-2′-propanol tetrachloride in an amount of 10 g/square meter of finished surface. After pressing and cooling samples the surface is antimicrobial.

The test system of a further experiment is Escherichia coli. Nature of the experiment: Antimicrobial assessment of embedded polyester fabric on mineral salts agar. In kind it is cell-based. The conditions noted are these: agent embedded in three polyester fabrics ("144×90", "Spandex" 5% lycra with polyester, "Darlington"), incubated at 28° C. for 28 days. How it is done: (§1) Three types of polyester fabric are embedded with bis-1′,3′-(1-hexadecyl)-1,4-diazoniabicyclo[2.2.2]octane-2′-propanol tetrachloride. Three polyester samples supplied by Gar are tested—a) “144×90”, b) “Spandex” which is 5% lycra with polyester, and c) “Darlington.” Each fabric sample is placed onto a mineral salts agar medium and then inoculated with either Staphylococus aureus or Escherichia coli. The inoculated specimen is then incubated at 28° C. for 28 days, in order to allow adequate time for bacterial growth. The fabric samples show a complete kill of both Staphylococus aureus and Escherichia coli.

In another experiment the test system is Staphylococus aureus. Described as above. The experiment is classed as cell-based. Particulars: agent embedded in three polyester fabrics ("144×90", "Spandex" 5% lycra with polyester, "Darlington"), incubated at 28° C. for 28 days. How it is done: as §1

As to `CCCCCCCCCCCCCCCC[N+]12CC[N+](CC(O)C[N+]34CC[N+](CCCCCCCCCCCCCCCC)(CC3)CC4)(CC1)CC2.[Cl-].[Cl-].[Cl-].[Cl-]` (stereo not drawn) [bis-1′,3′-(1-hexadecyl)-1,4-diazoniabicyclo[2.2.2]octane-2′-propanol tetrachloride], the “antimicrobial property of the surface” value in experiment [1] is recorded as “antimicrobial”. The “kill of Escherichia coli on embedded fabric samples” value with Escherichia coli is “complete kill”. In addition, in the experiment on Staphylococus aureus, the “kill of Staphylococus aureus on embedded fabric samples” value is given as “complete kill”.
